Patent US12070037B2, “Methods and compositions for bioprotection of potatoes from Streptomyces scabies” (THE ROYAL INSTITUTION FOR THE ADVANCEMENT OF …, priority 2018, dated 2024)

System: Streptomyces scabies
Assay: agar well diffusion assay
Type: cell-based
Procedure: In addition, the antimicrobial activity of the crude extracts from Bacillus pumilus and Bacillus subtilis was assessed via agar well diffusion assay. A spore suspension of Streptomyces scabies was overlaid on PDA and the plates were allowed to air dry. A 50 μL drop of crude extracts from Bacillus pumilus (top), Bacillus pumilus (right), and Bacillus subtilis (left) were poured into agar well and a control solution was pour on the bottom of the agar well.
The concentrated material (crude extract) in the vessel was suspended in 10% acetonitrile (AcN/H2O, v/v) and frozen at −20° C. until further analysis. The crude extract was centrifuged (Sorvall Biofuge Pico, Mandel Scientific, ON, Canada) at 13,000 rpm for 30 min to remove insoluble particles. The supernatant was filter sterilized (PVDF, […], Fisher Scientific, Montreal, Canada) and tested for biological activity against Streptomyces scabies. The filtered extract was then loaded onto a C18 column (Restek™, Fisher Scientific, Montreal, Canada) and eluted with 20 mL of 10%, 20%, 40%, 60%, 80% and 100% acetonitrile and the fractions were collected. The eluted fractions under various concentrations of acetonitrile were lyophilized (SNL216V, Savant Instruments Inc., NY, USA), suspended in sterilized distilled water and tested for biological activity against Streptomyces scabies. The fraction showing an inhibition zone against Streptomyces scabies was selected for further fractionation by HPLC. The active fraction was stored in sterilized vials at 4° C. prior to HPLC analysis.
The antimicrobial activities of Micrococcin P1 at various concentrations were assessed via agar well diffusion assay. A spore suspension of Streptomyces scabies was overlaid on PDA and the plates were allowed to air dry. A 50 μL drop of Micrococcin P1 diluted in various concentrations were applied into agar well.

## Micrococcin P1
Per well, in 50 μL, PDA, 3 days 30° C.
  minimal amount giving growth inhibition zones: ≥ 31.25 ng
Tested for biological activity
  antimicrobial activity of the standard: showed antimicrobial activity against Streptomyces scabies
Up to 5 mg/L (4.37 μM), highest concentration tested
  dose dependence of antibacterial activities: increased proportional to the Micrococcin P1 concentrations
